Measurements from patent EP2790511B1 (Merck Sharp & Dohme Corp., priority 2011, dated 2013).

Biological target: T1, hROMK (hKir1.1) (Homo sapiens, UniProt P48048)
T1 construct: expressed in transfected cells
T1 sequence (P48048 1-391): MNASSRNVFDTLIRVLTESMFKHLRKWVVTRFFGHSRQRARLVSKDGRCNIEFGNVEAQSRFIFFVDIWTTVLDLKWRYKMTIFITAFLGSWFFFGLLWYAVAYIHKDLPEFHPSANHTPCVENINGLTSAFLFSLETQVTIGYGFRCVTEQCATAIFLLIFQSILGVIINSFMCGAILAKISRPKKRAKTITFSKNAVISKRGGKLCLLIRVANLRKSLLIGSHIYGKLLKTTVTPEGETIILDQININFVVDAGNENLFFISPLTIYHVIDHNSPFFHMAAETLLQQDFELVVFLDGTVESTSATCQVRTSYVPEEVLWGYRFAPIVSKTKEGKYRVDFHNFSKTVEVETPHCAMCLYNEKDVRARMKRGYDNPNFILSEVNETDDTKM
Test: Thallium Flux Assay
Type: cell-based
Details: HEK293 cells stably expressing hROMK (hKir1.1), FLIPR-Tetra; read-out: Thallium Flux IC50
Method: Cell Culture Conditions- HEK293 cells stably expressing hROMK (hKir1.1) were grown at 37°C in a 10%CO2 humidified incubator in complete growth media: Dulbecco's Modified Eagle Medium supplemented with non-essential amino acids, Penicillin/Streptomycin/Glutamine, G418 and FBS. At >80% confluency, aspirate the media from the flask and rinse with 10 mL Calcium/Magnesium-free PBS. […] To dislodge the cell, gently bang the side of the flask with your hand. Triturate the cells completely and then transfer the cells to 25 mL complete media. Centrifuge at 1,500 rpm for 6 min followed by resuspension in complete growth media and determine cell concentration. […] Under ideal growth conditions and appropriate tissue culture practices, this cell line is stable for 40-45 passages.
• FluxOR™ Reagent (Component A) • FluxOR™ Assay Buffer (Component B) - 10X Concentrate • PowerLoad™ Concentrate (Component C) - 100X Concentrate • Probenecid (Component D) - Lyophilized sample is kept at -20°C. Water soluble, 100X after solubilization in 1 mL water. […] Store at 4°C. • Thallium sulfate (Tl2SO4) Concentrate (Component G) - 50 mM in water. Store at 4°C • DMSO (dimethyl sulfoxide, Component H) - 1 mL (100%)
• 1000X FluxOR™ Reagent: Reconstitute a vial of component A in 100 µl DMSO; Mix well; Store 10 µl aliquots at -20°C • 1X FluxOR™ Assay Buffer: Dilute Component B 10-fold with water; Adjust pH to 7.4 with Hepes/NaOH; Filter and store at 4°C • Probenecid/Assay Buffer: 100 mL of 1X FluxOR™ Assay Buffer; 1 mL of reconstituted component D; Store at 4°C • Loading Buffer (per microplate): 10 µl 1000X FluxOR™ Reagent; 100 µl component C; 10 mL Probenecid/Assay Buffer • Compound Buffer (per microplate): 20 mL Probenecid/Assay Buffer; 0.3 mM ouabain (10 mM ouabain in water can be stored in amber bottle/aluminum foil at room temperature); Test compound • 1X FluxOR™Chloride-Free Buffer: Prepare 1X working solution in water. Can be stored at room temperature • Stimulant Buffer (prepared at 5X final concentration in 1X FluxOR™Chloride-Free Buffer): 7.5 mM Thallium sulfate and 0.75 mM Potassium sulfate (to give a final assay concentration of 3 mM Thallium/ 0.3 mM Potassium). Store at 4°C when not in use. If kept sterile, this solution is good for months.
Assay protocol- The ROMK channel functional thallium flux assay is performed in 384 wells, using the FLIPR-Tetra instrument. HEK-hKir1.1 cells are seeded in Poly-D-Lysine microplates and kept in a 37°C-10%CO2 incubator overnight. On the day of the experiment, the growth media is replaced with the FluxOR™ reagent loading buffer and incubated, protected from light, at ambient temperature (23-25°C) for 90 min. The loading buffer is replaced with assay buffer ± test compound followed by 30 min incubation at ambient temperature, where the Thallium/Potassium stimulant is added to the microplate.
• 1. Seed HEK-hKir1.1 cells (50 µl at 20,000 cells/well) in 384-well PDL coated Microplates • 2. Allow cells to adhere overnight in humidified 37°C/10%CO2 incubator • 3. Completely remove cell growth media from microplate and replace with 25 µl loading buffer • 4. Incubate Microplate at room temperature, protected form light, for 90 min • 5. Remove loading buffer and replace with 25 µl 1x Assay Buffer ± test compound. • 6. Incubate microplate at room temperature, protected form light, for 30 min • 7. […] Excitation = 400 nm, Emission = 460 & 580 nm. Collect data for ∼ 10 min.
Data Calculation- The fluorescence intensity of wells containing 3 µM of a standard control ROMK inhibitor of the present invention is used to define the ROMK-sensitive component of thallium flux. Fluorescence in the presence of test compounds is normalized to control values to provide % fluorescence change.

| Molecule | IC50 |
| --- | --- |
| Cc1c(C2CN3CCN(C(=O)Cc4cnc(-n5cnnn5)nc4)CC3CCO2)ccc2c1COC2=O (single isomer, unassigned) [Example 165, 4-methyl-5-(2-{[2-(1H-tetrazol-1-yl)pyrimidin-5-yl]acetyl}octahydro-2H-pyrazino[1,2-d][1,4]oxazepin-7-yl)-2-benzofuran-1(3H)-one] | 210 nM |
| Cc1c([C@H]2CN3CCN(C(=O)Cc4ccc(-n5cnnn5)nc4)C[C@H]3CCO2)ccc(F)c1C#N (single isomer, unassigned) [Example 169] | 180 nM |
| Cc1c([C@@H]2CN3CCN(C(=O)Cc4ccc(-n5cnnn5)nc4)C[C@H]3CCO2)ccc(F)c1C#N (single isomer, unassigned) [Example 171] | 270 nM |
| N#Cc1c(F)ccc([C@H]2CN3CCN(C(=O)Cc4ccc(-n5cnnn5)nc4)C[C@H]3CO2)c1Cl [Example 10, 2-chloro-6-fluoro-3-[(3S,9aS)-8-{[6-(1H-tetrazol-1-yl)pvridin-3-yl]acetyl}octahydropyrazino[2,1-c][1,4]oxazin-3-yl]benzonitrile] | 70 nM |
| N#Cc1c(F)ccc([C@H]2CN3CCN(C(=O)Cc4ccc(-n5cnnn5)nc4)C[C@H]3CO2)c1F [Example 12, 2,6-difluoro-3-[(3S,9aS)-8-{[6-(1H-tetrazol-1-yl)pyridin-3-yl]acetyl}octahydropyrazino[2,1-c][1,4]oxazin-3-yl]benzonitrile] | 120 nM |
| Cc1c([C@H]2CN3CCN(C(=O)Cc4cnc(-n5cnnn5)nc4)C[C@H]3CO2)ccc2c1COC2=O [Example 15, 4-methyl-5-[(3S,9aS)-8-{[2-(1H-tetrazol-1-yl)pyrimidin-5-yl]acetyl}octahydropyrazino[2,1-c][1,4]oxazin-3-yl]benzofuran-1(3H)-one] | 140 nM |
| Cc1c([C@@H]2CN3CCN(C(=O)Cc4cnc(-n5cnnn5)nc4)C[C@H]3CO2)ccc2c1COC2=O [Example 16] | 480 nM |
| Cc1c(C#N)cccc1[C@@H]1CN2CCN(C(=O)Cc3cnc(-n4cnnn4)nc3)C[C@H]2CO1 [Example 17, 2-methyl-3-[(3R,9aS)-8-{[2-(1H-tetrazol-1-yl)pyrimidin-5-yl]acetyl}octahydropyrazino[2,1-c][1,4]oxazin-3-yl]benzonitrile] | 160 nM |
| Cc1c(C#N)cccc1[C@H]1CN2CCN(C(=O)Cc3cnc(-n4cnnn4)nc3)C[C@H]2CO1 [Example 18, 2-methyl-3-[(3S,9aS)-8-{[2-(1H-tetrazol-1-yl)pyrimidin-5-yl]acetyl}octahydropyrazino[2,1-c][1,4]oxazin-3-yl]benzonitrile] | 320 nM |

Same assay, conditions: Thallium Flux IC50

| Molecule | IC50 |
| --- | --- |
| Cc1c(C2CN3CCN(C(=O)Cc4ccc(-n5cnnn5)nc4)CC3CCO2)ccc2c1COC2=O (single isomer, unassigned) [Example 163, 4-methyl-5-(2-{[6-(1H-tetrazol-1-yl)pyridin-3-yl]acetyl}octahydro-2H-pyrazino[1,2-d][1,4]oxazepin-7-yl)-2-benzofuran-1(3H)-one] | 210 nM |
| Cc1c(C2CN3CCN(C(=O)Cc4ccc(-n5cnnn5)nc4)CC3CCO2)ccc2c1COC2=O (single isomer, unassigned) [Example 164, 4-methyl-5-(2-{(6-(1H-tetrazol-1-yl)pyridin-3-yl]acetyl}octahydro-2H-pyrazino[1,2-d][1,4]oxazepin-7-yl)-2-benzofuran-1(3H)-one] | 650 nM |
| Cc1c([C@@H]2CN3CCN(C(=O)Cc4ccc(-n5cnnn5)nc4)C[C@@H]3CCO2)ccc(F)c1C#N (single isomer, unassigned) [Example 170] | 240 nM |
| Cc1c([C@H]2CN3CCN(C(=O)Cc4cnc(-n5cnnn5)nc4)C[C@H]3CCO2)ccc(F)c1C#N (single isomer, unassigned) [Example 172] | 220 nM |
| Cc1c([C@@H]2CN3CCN(C(=O)Cc4ccc(-n5cnnn5)nc4)C[C@H]3CO2)ccc(F)c1C#N [Example 5, 6-fluoro-2-methyl-3-[(3R,9aS)-8-{[6-(1H-tetrazol-1-yl)pyridin-3-yl]acetyl}octahydropyrazino[2,1-c][1,4]oxazin-3-yl]benzonitrile] | 50 nM |
| Cc1c([C@H]2CN3CCN(C(=O)Cc4cnc(-n5cnnn5)nc4)C[C@@H]3CO2)ccc(F)c1C#N [Example 9, 6-fluoro-2-methyl-3-[(3S,9aR)-8-{[2-(1H-tetrazol-1-yl)pyrimidin-5-yl]acetyl}octahydropyrazino[2,1-c][1,4]oxazin-3-yl]benzonitrile] | 180 nM |
| N#Cc1c(F)ccc([C@@H]2CN3CCN(C(=O)Cc4ccc(-n5cnnn5)nc4)C[C@H]3CO2)c1F [Example 11, 2,6-difluoro-3-[(3R,9aS)-8{[6-(1H-tetrazol-1-yl)pyridin-3-yl]acetyl}octahydropyrazino[2,1-c][1,4]oxazin-3-yl]benzonitrile] | 90 nM |
| Cc1c([C@@H]2CN3CCN(C(=O)Cc4cnc(-n5cnnn5)nc4)C[C@H]3CO2)ccc(F)c1C#N [Example 14] | 80 nM |
| C[C@@H]1Cc2cc([C@@H]3CN4CCN(C(=O)Cc5cnc(-n6cnnn6)nc5)C[C@H]4CO3)ccc2C(=O)O1 [Example 19] | 160 nM |
| C[C@H]1Cc2cc([C@@H]3CN4CCN(C(=O)Cc5cnc(-n6cnnn6)nc5)C[C@H]4CO3)ccc2C(=O)O1 [Example 20, (3S)-3-methyl-6-[(3R,9aS)-8-{[2-(1H-tetrazol-1-yl)pyrimidin-5-yl]acetyl}octahydropyrazino[2,1-c][1,4]oxazin-3-yl]-3,4-dihydro-1H-isochromen-1-one] | 170 nM |
| Cc1c([C@H]2CN3CCN(C(=O)Cc4ccc(-n5cnnn5)nc4)C[C@H]3CO2)ccc2c1COC2=O [Example 21, 4-methyl-5-[(3S,9aS)-8-{[6-(1H-tetrazol-1-yl)pyridin-3-yl]acetyl}octahydropyrazino[2,1-c][1,4]oxazin-3-yl]-2-benzofuran-1(3H)-one] | 100 nM |
| Cc1c([C@@H]2CN3CCN(C(=O)Cc4ccc(-n5cnnn5)nc4)C[C@H]3CO2)ccc2c1COC2=O [Example 22, 4-methyl-5-[(3R,9a,S)-8-{[6-(1H-tetrazol-1-yl)pyridin-3-yl]acetyl}octahydropyrazino[2,1-c][1,4]oxazin-3-y]-2-benzofuran-1(3H)-one] | 160 nM |
| Cc1c([C@@H]2CN3CCN(C(=O)Cc4ccc(-n5cnnn5)nc4)C[C@@H]3CO2)ccc2c1COC2=O [Example 23] | 70 nM |

Same assay, conditions: read-out: Thallium Flux IC50

| Molecule | IC50 |
| --- | --- |
| 2,6-difluoro-3-[3R,9aS)-8-{[2-methyl-6-(1H-tetrazol-1-vl)pvridin-3-yl]acetyl}octahydropyrazino[2,1-c][1,4]oxazin-3-yl]benzonitrile [Example 89] | 70 nM |
| O=C1OCCc2cc([C@@H]3CN4CCN(C(=O)Cc5ccc(-n6cnnn6)nc5)C[C@H]4CO3)ccc21 [Example 1] | 80 nM |
